Source: ChEMBL document CHEMBL5724806, “Unraveling interindividual differences and functional consequences of gut microbial metabolism of immunosuppressants” (2024)

What was measured:
Type in all cases: ADME
[1] = (§1) The drug is tested on Bifidobacterium adolescentis strain: DSM20083 for biotransformation under anaerobic condition. The drug concentrations were measured over 6 timepoints collected between 0 and 12 hours of incubation by liquid-chromatography-coupled mass spectrometry (LC–MS); set-up: dose 5 uM, timepoint 0, 1.5, 3, 6, 9, 12 hours; conditions: 5 µM
[2] = The drug is tested on Capnocytophaga ochracea strain: DSM7271 for biotransformation under anaerobic condition. The drug concentrations were measured over 6 timepoints collected between 0 and 12 hours of incubation by liquid-chromatography-coupled mass spectrometry (LC–MS); set-up: dose 5 uM, timepoint 0, 1.5, 3, 6, 9, 12 hours; conditions: 5 µM
[3] = The drug is tested on Faecalibacterium prausnitzii strain: DSM17677 for biotransformation under anaerobic condition. The drug concentrations were measured over 6 timepoints collected between 0 and 12 hours of incubation by liquid-chromatography-coupled mass spectrometry (LC–MS); set-up: dose 5 uM, timepoint 0, 1.5, 3, 6, 9, 12 hours; conditions: faecalibacterium duncaniae, 5 µM
[4] = The drug is tested on Gemella morbillorum strain: DSM20572 for biotransformation under anaerobic condition. The drug concentrations were measured over 6 timepoints collected between 0 and 12 hours of incubation by liquid-chromatography-coupled mass spectrometry (LC–MS); set-up: dose 5 uM, timepoint 0, 1.5, 3, 6, 9, 12 hours; conditions: 5 µM
[5] = The drug is tested on Lactobacillus gasseri strain: DSM20243 for biotransformation under anaerobic condition. The drug concentrations were measured over 6 timepoints collected between 0 and 12 hours of incubation by liquid-chromatography-coupled mass spectrometry (LC–MS); set-up: dose 5 uM, timepoint 0, 1.5, 3, 6, 9, 12 hours; conditions: 5 µM
[6] = The drug is tested on Lactobacillus paracasei strain: ATCC27092 for biotransformation under anaerobic condition. The drug concentrations were measured over 6 timepoints collected between 0 and 12 hours of incubation by liquid-chromatography-coupled mass spectrometry (LC–MS); set-up: dose 5 uM, timepoint 0, 1.5, 3, 6, 9, 12 hours; conditions: lacticaseibacillus paracasei, 5 µM
[7] = The drug is tested on Lactobacillus reuteri strain: DSM20016 for biotransformation under anaerobic condition. The drug concentrations were measured over 6 timepoints collected between 0 and 12 hours of incubation by liquid-chromatography-coupled mass spectrometry (LC–MS); set-up: dose 5 uM, timepoint 0, 1.5, 3, 6, 9, 12 hours; conditions: limosilactobacillus reuteri, 5 µM
[8] = The drug is tested on Streptococcus salivarius strain: DSM20560 for biotransformation under anaerobic condition. The drug concentrations were measured over 6 timepoints collected between 0 and 12 hours of incubation by liquid-chromatography-coupled mass spectrometry (LC–MS); set-up: dose 5 uM, timepoint 0, 1.5, 3, 6, 9, 12 hours; conditions: 5 µM
[9] = The drug is tested on Streptococcus sanguinis strain: DSM20567 for biotransformation under anaerobic condition. The drug concentrations were measured over 6 timepoints collected between 0 and 12 hours of incubation by liquid-chromatography-coupled mass spectrometry (LC–MS); set-up: dose 5 uM, timepoint 0, 1.5, 3, 6, 9, 12 hours; conditions: 5 µM
[10] = (§2) The drug is tested on Actinomyces graevenitzii strain: DSM15540 for biotransformation under microaerobic condition. The drug concentrations were measured over 6 timepoints collected between 0 and 12 hours of incubation by liquid-chromatography-coupled mass spectrometry (LC–MS); set-up: dose 5 uM, timepoint 0, 1.5, 3, 6, 9, 12 hours; conditions: 5 µM
[11] = The drug is tested on Actinomyces naeslundi strain: DSM43013 for biotransformation under microaerobic condition. The drug concentrations were measured over 6 timepoints collected between 0 and 12 hours of incubation by liquid-chromatography-coupled mass spectrometry (LC–MS); set-up: dose 5 uM, timepoint 0, 1.5, 3, 6, 9, 12 hours; conditions: actinomyces naeslundii, 5 µM
[12] = The drug is tested on Lactobacillus paracasei strain: ATCC27092 for biotransformation under microaerobic condition. The drug concentrations were measured over 6 timepoints collected between 0 and 12 hours of incubation by liquid-chromatography-coupled mass spectrometry (LC–MS); set-up: dose 5 uM, timepoint 0, 1.5, 3, 6, 9, 12 hours; conditions: lacticaseibacillus paracasei, 5 µM
[13] = The drug is tested on Lactobacillus reuteri strain: DSM20016 for biotransformation under microaerobic condition. The drug concentrations were measured over 6 timepoints collected between 0 and 12 hours of incubation by liquid-chromatography-coupled mass spectrometry (LC–MS); set-up: dose 5 uM, timepoint 0, 1.5, 3, 6, 9, 12 hours; conditions: limosilactobacillus reuteri, 5 µM
[14] = The drug is tested on Streptococcus anginosus strain: DSM20563 for biotransformation under microaerobic condition. The drug concentrations were measured over 6 timepoints collected between 0 and 12 hours of incubation by liquid-chromatography-coupled mass spectrometry (LC–MS); set-up: dose 5 uM, timepoint 0, 1.5, 3, 6, 9, 12 hours; conditions: 5 µM
[15] = The drug is tested on Streptococcus mitis strain: DSM12643 for biotransformation under microaerobic condition. The drug concentrations were measured over 6 timepoints collected between 0 and 12 hours of incubation by liquid-chromatography-coupled mass spectrometry (LC–MS); set-up: dose 5 uM, timepoint 0, 1.5, 3, 6, 9, 12 hours; conditions: 5 µM
[16] = The drug is tested on Escherichia coli strain: DSM27469 for biotransformation under microaerobic condition. The drug concentrations were measured over 6 timepoints collected between 0 and 12 hours of incubation by liquid-chromatography-coupled mass spectrometry (LC–MS); set-up: dose 5 uM, timepoint 0, 1.5, 3, 6, 9, 12 hours; conditions: 5 µM
[17] = as §1, with “the gut metagenome community of A-01 with ENA study accession number: PRJEB31790” for “Bifidobacterium adolescentis strain: DSM20083”, “7” for “6”; set-up: dose 5 uM, timepoint 0, 0.75, 1.5, 3, 6, 9, 12 hours; conditions: 5 µM
[18] = as §1, with “the gut metagenome community of A-02 with ENA study accession number: PRJEB31790” for “Bifidobacterium adolescentis strain: DSM20083”, “7” for “6”; set-up: dose 5 uM, timepoint 0, 0.75, 1.5, 3, 6, 9, 12 hours; conditions: 5 µM
[19] = as §1, with “the gut metagenome community of A-05 with ENA study accession number: PRJEB31790” for “Bifidobacterium adolescentis strain: DSM20083”, “7” for “6”; set-up: dose 5 uM, timepoint 0, 0.75, 1.5, 3, 6, 9, 12 hours; conditions: 5 µM
[20] = as §1, with “the gut metagenome community of A-07 with ENA study accession number: PRJEB31790” for “Bifidobacterium adolescentis strain: DSM20083”, “7” for “6”; set-up: dose 5 uM, timepoint 0, 0.75, 1.5, 3, 6, 9, 12 hours; conditions: 5 µM
[21] = as §1, with “the gut metagenome community of P-01 with ENA study accession number: PRJEB31790” for “Bifidobacterium adolescentis strain: DSM20083”, “7” for “6”; set-up: dose 5 uM, timepoint 0, 0.75, 1.5, 3, 6, 9, 12 hours; conditions: 5 µM
[22] = as §1, with “the gut metagenome community of P-02 with ENA study accession number: PRJEB31790” for “Bifidobacterium adolescentis strain: DSM20083”, “7” for “6”; set-up: dose 5 uM, timepoint 0, 0.75, 1.5, 3, 6, 9, 12 hours; conditions: 5 µM
[23] = as §1, with “the gut metagenome community of P-04 with ENA study accession number: PRJEB31790” for “Bifidobacterium adolescentis strain: DSM20083”, “7” for “6”; set-up: dose 5 uM, timepoint 0, 0.75, 1.5, 3, 6, 9, 12 hours; conditions: 5 µM
[24] = as §1, with “the gut metagenome community of T-02 with ENA study accession number: PRJEB31790” for “Bifidobacterium adolescentis strain: DSM20083”, “7” for “6”; set-up: dose 5 uM, timepoint 0, 0.75, 1.5, 3, 6, 9, 12 hours; conditions: 5 µM
[25] = as §1, with “the gut metagenome community of T-03 with ENA study accession number: PRJEB31790” for “Bifidobacterium adolescentis strain: DSM20083”, “7” for “6”; set-up: dose 5 uM, timepoint 0, 0.75, 1.5, 3, 6, 9, 12 hours; conditions: 5 µM
[26] = as §2, with “the gut metagenome community of A-01 with ENA study accession number: PRJEB31790” for “Actinomyces graevenitzii strain: DSM15540”, “7” for “6”; set-up: dose 5 uM, timepoint 0, 0.75, 1.5, 3, 6, 9, 12 hours; conditions: 5 µM
[27] = as §2, with “the gut metagenome community of A-05 with ENA study accession number: PRJEB31790” for “Actinomyces graevenitzii strain: DSM15540”, “7” for “6”; set-up: dose 5 uM, timepoint 0, 0.75, 1.5, 3, 6, 9, 12 hours; conditions: 5 µM
[28] = as §2, with “the gut metagenome community of A-06 with ENA study accession number: PRJEB31790” for “Actinomyces graevenitzii strain: DSM15540”, “7” for “6”; set-up: dose 5 uM, timepoint 0, 0.75, 1.5, 3, 6, 9, 12 hours; conditions: 5 µM
[29] = as §2, with “the gut metagenome community of A-08 with ENA study accession number: PRJEB31790” for “Actinomyces graevenitzii strain: DSM15540”, “7” for “6”; set-up: dose 5 uM, timepoint 0, 0.75, 1.5, 3, 6, 9, 12 hours; conditions: 5 µM
[30] = as §2, with “the gut metagenome community of T-02 with ENA study accession number: PRJEB31790” for “Actinomyces graevenitzii strain: DSM15540”, “7” for “6”; set-up: dose 5 uM, timepoint 0, 0.75, 1.5, 3, 6, 9, 12 hours; conditions: 5 µM
[31] = as §2, with “the gut metagenome community of T-05 with ENA study accession number: PRJEB31790” for “Actinomyces graevenitzii strain: DSM15540”, “7” for “6”; set-up: dose 5 uM, timepoint 0, 0.75, 1.5, 3, 6, 9, 12 hours; conditions: 5 µM

| SMILES | Bacterial Biotransformation [1] | Bacterial Biotransformation [2] | Bacterial Biotransformation [3] | Bacterial Biotransformation [4] | Bacterial Biotransformation [5] | Bacterial Biotransformation [6] | Bacterial Biotransformation [7] | Bacterial Biotransformation [8] | Bacterial Biotransformation [9] | Bacterial Biotransformation [10] | Bacterial Biotransformation [11] | Bacterial Biotransformation [12] | Bacterial Biotransformation [13] | Bacterial Biotransformation [14] | Bacterial Biotransformation [15] | Bacterial Biotransformation [16] | Bacterial Biotransformation [17] | Bacterial Biotransformation [18] | Bacterial Biotransformation [19] | Bacterial Biotransformation [20] | further results |
| --- | --- | --- | --- | --- | --- | --- | --- | --- | --- | --- | --- | --- | --- | --- | --- | --- | --- | --- | --- | --- | --- |
| CCOc1nc2cccc(C(=O)O)c2n1Cc1ccc(-c2ccccc2-c2nnn[nH]2)cc1 | Compound NOT metabolized | Compound NOT metabolized | Compound NOT metabolized | Compound NOT metabolized | Compound NOT metabolized | Compound NOT metabolized | Compound NOT metabolized | Compound NOT metabolized | Compound NOT metabolized | Compound NOT metabolized | Compound NOT metabolized | Compound NOT metabolized | Compound NOT metabolized | Compound NOT metabolized | Compound NOT metabolized | Compound NOT metabolized | Compound NOT metabolized | Compound NOT metabolized | Compound NOT metabolized | Compound NOT metabolized | Bacterial Biotransformation [21]: Compound NOT metabolized; Bacterial Biotransformation [22]: Compound NOT metabolized; Bacterial Biotransformation [23]: Compound NOT metabolized; Bacterial Biotransformation [24]: Compound NOT metabolized; Bacterial Biotransformation [25]: Compound NOT metabolized; Bacterial Biotransformation [26]: Compound NOT metabolized; Bacterial Biotransformation [27]: Compound NOT metabolized; Bacterial Biotransformation [28]: Compound NOT metabolized; Bacterial Biotransformation [29]: Compound NOT metabolized; Bacterial Biotransformation [30]: Compound NOT metabolized; Bacterial Biotransformation [31]: Compound NOT metabolized |
| C[C@]12C=CC(=O)C=C1CC[C@@H]1[C@@H]2C(=O)C[C@@]2(C)[C@H]1CC[C@]2(O)C(=O)CO [PREDNISONE] | Compound NOT metabolized | Compound NOT metabolized | Compound metabolized | Compound NOT metabolized | Compound NOT metabolized | Compound NOT metabolized | Compound NOT metabolized | Compound NOT metabolized | Compound NOT metabolized | Compound NOT metabolized | Compound NOT metabolized | Compound NOT metabolized | Compound NOT metabolized | Compound NOT metabolized | Compound NOT metabolized | Compound NOT metabolized | Compound metabolized | Compound metabolized | Compound metabolized | Compound metabolized | Bacterial Biotransformation [21]: Compound metabolized; Bacterial Biotransformation [22]: Compound metabolized; Bacterial Biotransformation [23]: Compound metabolized; Bacterial Biotransformation [24]: Compound metabolized; Bacterial Biotransformation [25]: Compound NOT metabolized; Bacterial Biotransformation [26]: Compound metabolized; Bacterial Biotransformation [27]: Compound metabolized; Bacterial Biotransformation [28]: Compound metabolized; Bacterial Biotransformation [29]: Compound metabolized; Bacterial Biotransformation [30]: Compound metabolized; Bacterial Biotransformation [31]: Compound metabolized |
| NS(=O)(=O)c1cc(C(=O)O)c(NCc2ccco2)cc1Cl [FUROSEMIDE] | Compound NOT metabolized | Compound NOT metabolized | Compound NOT metabolized | Compound NOT metabolized | Compound NOT metabolized | Compound NOT metabolized | Compound NOT metabolized | Compound NOT metabolized | Compound NOT metabolized | Compound NOT metabolized | Compound NOT metabolized | Compound NOT metabolized | Compound NOT metabolized | Compound NOT metabolized | Compound NOT metabolized | Compound NOT metabolized | Compound NOT metabolized | Compound NOT metabolized | Compound NOT metabolized | Compound NOT metabolized | Bacterial Biotransformation [21]: Compound NOT metabolized; Bacterial Biotransformation [22]: Compound NOT metabolized; Bacterial Biotransformation [23]: Compound NOT metabolized; Bacterial Biotransformation [24]: Compound NOT metabolized; Bacterial Biotransformation [25]: Compound NOT metabolized; Bacterial Biotransformation [26]: Compound NOT metabolized; Bacterial Biotransformation [27]: Compound NOT metabolized; Bacterial Biotransformation [28]: Compound NOT metabolized; Bacterial Biotransformation [29]: Compound NOT metabolized; Bacterial Biotransformation [30]: Compound NOT metabolized; Bacterial Biotransformation [31]: Compound NOT metabolized |
